ChEMBL document CHEMBL1156475, “Efficient inhibition of class A and class D beta-lactamases by Michaelis complexes” (J Biol Chem, 2007)

What was measured:
[1] = Inhibition of beta lactamase SHV1
[2] = target: Beta-lactamase OXA-1 (Escherichia coli) (UniProt P13661); test: Inhibition of Escherichia coli beta lactamase OXA-1
[3] = Inhibition of beta lactamase TEM1
[4] = Inhibition of beta lactamase P99

Sequence of Beta-lactamase OXA-1 (Escherichia coli) (P13661 whole entry): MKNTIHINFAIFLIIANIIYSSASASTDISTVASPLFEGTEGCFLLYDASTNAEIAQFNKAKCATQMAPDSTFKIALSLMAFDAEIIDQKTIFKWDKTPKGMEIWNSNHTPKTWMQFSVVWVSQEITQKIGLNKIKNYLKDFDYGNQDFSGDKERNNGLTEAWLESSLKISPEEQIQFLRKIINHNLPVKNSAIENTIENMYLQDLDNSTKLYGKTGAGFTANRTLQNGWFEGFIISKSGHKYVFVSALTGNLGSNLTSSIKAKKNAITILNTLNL

SMILES | Kinact [1] | Kinact [2] | IC50 [3] | IC50 [4]
C[C@]1(COC(=O)Cc2ccccc2)[C@H](C(=O)O)N2C(=O)/C(=C/c3ccccn3)[C@H]2S1(=O)=O | 42 nM | 1 µM | 40 nM | 1 nM
C[C@]1(Cn2ccnn2)[C@H](C(=O)O)N2C(=O)C[C@H]2S1(=O)=O | 330 nM |  |  | 
